Assay results taken from ChEMBL document CHEMBL1201862, “PubChem BioAssay data set” (2004).
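Growth conditions: 96-well plates. Treatment: test compound, 48 hours, 5 concentrations. Analysis: linear interpolation between bracketing concentrations; unreached endpoints set to highest concentration. The concentration for 50% growth inhibition is given as GI50.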 The source made the active and inactive calls. Rule as the data show it: active = GI50 up to about 1.1 µM and inactive = higher.

How the values were obtained:
Assay in all cases: DTP human tumour cell line panel, 48 h
[1] = system: A498
[2] = system: CCRF-CEM
[3] = system: EKVX
[4] = system: HCC 2998
[5] = system: HL-60
[6] = system: KM12
[7] = system: M14
[8] = system: MCF7
[9] = system: MDA-MB-435
[10] = system: NCI-H23
[11] = system: NCI-H522
[12] = system: SF-268
[13] = system: SF-295
[14] = system: SK-MEL-28
[15] = system: SN12C
[16] = system: SNB-19
[17] = system: SNB-75
[18] = system: TK-10
[19] = system: UACC-257
[20] = system: UO-31

Structure (SMILES)	GI50 [1]	GI50 [2]	GI50 [3]	GI50 [4]	GI50 [5]	GI50 [6]	GI50 [7]	GI50 [8]	GI50 [9]	GI50 [10]	GI50 [11]	GI50 [12]	GI50 [13]	GI50 [14]	GI50 [15]	GI50 [16]	GI50 [17]	GI50 [18]	GI50 [19]	GI50 [20]
CC(C)c1ccc2c(c1)CCC1C(C)(CN)CCCC21C (stereo not given)	1.61 µM (inactive)	1.55 µM (inactive)	1.86 µM (inactive)	0.0438 µM (active)	1.31 µM (inactive)	1.69 µM (inactive)	1.67 µM (inactive)	1.44 µM (inactive)	1.44 µM (inactive)	1.7 µM (inactive)	1.79 µM (inactive)	1.65 µM (inactive)	1.82 µM (inactive)	1.73 µM (inactive)	1.71 µM (inactive)	1.77 µM (inactive)	1.94 µM (inactive)	1.7 µM (inactive)	1.69 µM (inactive)	1.39 µM (inactive)
COC(=O)c1ccccc1OCc1cc(=O)oc2ccc(C)cc12	> 100 µM (inactive)	> 100 µM (inactive)	> 100 µM (inactive)	> 100 µM (inactive)	> 100 µM (inactive)	> 100 µM (inactive)	> 87.7 µM (inactive)	21.4 µM (inactive)	> 100 µM (inactive)	> 100 µM (inactive)	14.8 µM (inactive)	29.1 µM (inactive)	28.2 µM (inactive)	> 100 µM (inactive)	> 100 µM (inactive)	14.7 µM (inactive)	16.2 µM (inactive)	58.7 µM (inactive)	> 87.3 µM (inactive)	> 100 µM (inactive)
COc1ccccc1/C=C1\CCC(CN(C)C)C1=O (stereo not given)	19.3 µM (inactive)	1.5 µM (inactive)	15 µM (inactive)	5.21 µM (inactive)	1.49 µM (inactive)	3.75 µM (inactive)	3.64 µM (inactive)	2.12 µM (inactive)	8.83 µM (inactive)	10.8 µM (inactive)	1.85 µM (inactive)	10.6 µM (inactive)	15.2 µM (inactive)	4.36 µM (inactive)	2.48 µM (inactive)	17.1 µM (inactive)	8.49 µM (inactive)	5.73 µM (inactive)	10.8 µM (inactive)	7.74 µM (inactive)
S=C(N/N=C/c1ccccn1)Nc1ccc(Cl)cc1	4.1 µM (inactive)	< 0.01 µM (active)	0.0682 µM (active)	0.59 µM (active)	0.0317 µM (active)	0.175 µM (active)	0.0347 µM (active)	0.0489 µM (active)	0.373 µM (active)	0.104 µM (active)	0.028 µM (active)	0.05 µM (active)	0.181 µM (active)	0.413 µM (active)	0.32 µM (active)	0.483 µM (active)	0.236 µM (active)	2.93 µM (inactive)	0.04 µM (active)	0.0514 µM (active)
Cc1nc2ccc(Cl)cc2c(Cl)c1CCCl	83 µM (inactive)	15.1 µM (inactive)	51.3 µM (inactive)	30.7 µM (inactive)	46.6 µM (inactive)	30.8 µM (inactive)	31 µM (inactive)	30.6 µM (inactive)	8.36 µM (inactive)	60.4 µM (inactive)	39.3 µM (inactive)	> 100 µM (inactive)	48.2 µM (inactive)	> 100 µM (inactive)	39.5 µM (inactive)	45.4 µM (inactive)	29.4 µM (inactive)	> 100 µM (inactive)	74 µM (inactive)	42.2 µM (inactive)
CC1CNC(c2ccc(-c3nc(-c4ccc(C5=NC(C)CN5)cc4)nc(N(C)C)n3)cc2)=N1 (stereo not given)	2.05 µM (inactive)	0.685 µM (active)	2.54 µM (inactive)	1.83 µM (inactive)	2.62 µM (inactive)	2.23 µM (inactive)	3.21 µM (inactive)	1.42 µM (inactive)	1.46 µM (inactive)	2.39 µM (inactive)	1.24 µM (inactive)	2 µM (inactive)	4.22 µM (inactive)	2.69 µM (inactive)	1.47 µM (inactive)	1.75 µM (inactive)	1.82 µM (inactive)	3.78 µM (inactive)	3.08 µM (inactive)	7.33 µM (inactive)
COCCOC1=C(Cl)C(=O)c2c(O)ccc(O)c2C1=O	10.4 µM (inactive)	0.111 µM (active)	4.97 µM (inactive)	8.2 µM (inactive)	0.111 µM (active)	9.48 µM (inactive)	1.71 µM (inactive)	1.21 µM (inactive)	1.02 µM (active)	2.25 µM (inactive)	0.681 µM (active)	4.71 µM (inactive)	14.8 µM (inactive)	2.27 µM (inactive)	1.92 µM (inactive)	14.6 µM (inactive)	5.55 µM (inactive)	1.47 µM (inactive)	1.96 µM (inactive)	1.71 µM (inactive)
COCCN(CCOC)C(=O)COc1c2cc(C(C)(C)C)cc1Cc1cc(C(C)(C)C)cc(c1OCC(=O)N(CCOC)CCOC)Cc1cc(C(C)(C)C)cc(c1OCC(=O)N(CCOC)CCOC)Cc1cc(C(C)(C)C)cc(c1OCC(=O)N(CCOC)CCOC)Cc1cc(C(C)(C)C)cc(c1OCC(=O)N(CCOC)CCOC)C2	3.17 µM (inactive)	0.705 µM (active)	0.434 µM (active)	2.25 µM (inactive)	1.25 µM (inactive)	0.518 µM (active)	1.89 µM (inactive)	1.3 µM (inactive)	2.09 µM (inactive)	1.19 µM (inactive)	0.655 µM (active)	1.93 µM (inactive)	1.54 µM (inactive)	3.33 µM (inactive)	0.851 µM (active)	1.34 µM (inactive)	0.0881 µM (active)	2.76 µM (inactive)	1.01 µM (active)	0.366 µM (active)
CCOc1ccc2nc3nc(O)nc(C)c3c(NC(C)(CO)CO)c2c1	> 100 µM (inactive)	> 100 µM (inactive)	> 100 µM (inactive)	> 100 µM (inactive)	> 100 µM (inactive)	> 100 µM (inactive)	> 100 µM (inactive)	4.08 µM (inactive)	> 100 µM (inactive)	> 100 µM (inactive)	> 100 µM (inactive)	> 100 µM (inactive)	> 100 µM (inactive)	> 100 µM (inactive)	> 100 µM (inactive)	> 100 µM (inactive)	> 100 µM (inactive)	> 100 µM (inactive)	> 100 µM (inactive)	> 100 µM (inactive)
c1ccc(N/N=C2\CC(c3ccccc3)Oc3ccccc32)cc1 (stereo not given)	42.2 µM (inactive)	33 µM (inactive)	21.9 µM (inactive)	43.4 µM (inactive)	38.2 µM (inactive)	32.4 µM (inactive)	42.6 µM (inactive)	24 µM (inactive)	27.5 µM (inactive)	60.4 µM (inactive)	21.8 µM (inactive)	35.8 µM (inactive)	42.7 µM (inactive)	> 100 µM (inactive)	36.2 µM (inactive)	35.9 µM (inactive)	22.9 µM (inactive)	74.1 µM (inactive)	69.3 µM (inactive)	22.1 µM (inactive)
CCCCC(=O)c1c(O)ccc2c(C)cc(=O)oc12	97.7 µM (inactive)	82.2 µM (inactive)	89.1 µM (inactive)	45.8 µM (inactive)	> 100 µM (inactive)	> 100 µM (inactive)	> 100 µM (inactive)	76.2 µM (inactive)	> 100 µM (inactive)	99.8 µM (inactive)	58.2 µM (inactive)	> 100 µM (inactive)	> 100 µM (inactive)	> 100 µM (inactive)	> 100 µM (inactive)	> 100 µM (inactive)	> 100 µM (inactive)	> 100 µM (inactive)	> 100 µM (inactive)	24.8 µM (inactive)
COc1ccc(CCNCCCC2c3ccccc3-c3ccccc32)cc1OC	8.02 µM (inactive)	24.3 µM (inactive)	16.3 µM (inactive)	2.06 µM (inactive)	12.9 µM (inactive)	15.1 µM (inactive)	4.8 µM (inactive)	6.7 µM (inactive)	14.7 µM (inactive)	15 µM (inactive)	15.9 µM (inactive)	15.1 µM (inactive)	15.6 µM (inactive)	9.44 µM (inactive)	15 µM (inactive)	16.7 µM (inactive)	13.5 µM (inactive)	14.4 µM (inactive)	14.3 µM (inactive)	11.6 µM (inactive)
N#Cc1c2ccc([N+](=O)[O-])cc2c(=O)n2c1[nH]c1ccc(C(F)(F)F)cc12	7.91 µM (inactive)	1.35 µM (inactive)	> 100 µM (inactive)	15.2 µM (inactive)	0.254 µM (active)	24.8 µM (inactive)	24.5 µM (inactive)	63.4 µM (inactive)	54 µM (inactive)	20.1 µM (inactive)	7.28 µM (inactive)	39.6 µM (inactive)	14.4 µM (inactive)	24.2 µM (inactive)	> 42.4 µM (inactive)	10.8 µM (inactive)	27.3 µM (inactive)	99.5 µM (inactive)	> 88.7 µM (inactive)	17.5 µM (inactive)
CC1C2CC(CC2(C)O)C1(C)C (stereo not given)	> 100 µM (inactive)	> 100 µM (inactive)	> 100 µM (inactive)	> 100 µM (inactive)	> 100 µM (inactive)	> 100 µM (inactive)	> 100 µM (inactive)	> 100 µM (inactive)	> 10 µM (inactive)	> 100 µM (inactive)	> 100 µM (inactive)	> 100 µM (inactive)	> 100 µM (inactive)	> 100 µM (inactive)	> 100 µM (inactive)	> 100 µM (inactive)	> 100 µM (inactive)	> 100 µM (inactive)	> 100 µM (inactive)	> 100 µM (inactive)
